# In a melting point compilation (Tetko et al.):
row,Compound,melting point [°C]
1,CC(C)(C)OC(=O)N1CCN(c2nnc(N)[nH]2)CC1,178 to 180
2,Cc1sc(N)nc1C(C)C,107 to 109
3,O=C1NCCCCC1Oc1ccc(Br)cc1 (configuration not stated),176 to 178
4,NC(=O)NCc1ccco1,120 to 122
5,O=S1(=O)CC(Cl)C(Cl)C1 (configuration not stated),130 to 133
6,O=c1[nH]cnc2c(Br)cccc12,317 to 319
7,NS(=O)(=O)c1cc(C(=O)O)cc([N+](=O)[O-])c1Cl,143 to 147
8,CSc1nsc(N)n1,146 to 148
9,Cc1ccc(-c2nnc(N)o2)cc1F,264 to 266
10,O=c1[nH]c2ccsc2c(=O)o1,218 to 220
11,CN(C)c1cc(C(=O)O)cc(Cl)n1,194 to 196
12,Fc1ccc(-n2c(S)nnc2-c2ccncc2)cc1,165 to 175
13,NCC(O)C1CCCCC1 (configuration not stated),85 to 87
14,CC(C)(C)CC(=O)Nc1ccc(Cl)c(C(=O)O)c1,214 to 216
15,NC1c2ccccc2-c2ccccc21,43 to 45
16,O=C(CCl)NNC(=O)c1cccc(Cl)c1,155 to 157
17,Nc1ccc(-c2ccccc2)nn1,145 to 147
18,O=C(O)c1ccc(N2CCCS2(=O)=O)cc1Cl,226 to 228
19,CCOC(=O)COc1ccc(C#N)cc1OC,69 to 71
20,COCCn1cc(S(=O)(=O)Cl)cn1,35 to 37
21,C#CCOc1ccccc1O,48 to 50
22,COC(=O)Cc1nnc(N)[nH]1,159 to 161
23,O=Cc1c[nH]nc1-c1ccc2c(c1)OCO2,188 to 190

row,Compound,melting point [°C]
1,O=Cc1c[nH]nc1-c1ccccc1F,114 to 116
2,CN(C)CCCNS(=O)(=O)c1cccc(C#N)c1,101 to 103
3,OCc1ccncc1Cl,118 to 120
4,Nc1cc(-c2ccc(Br)s2)n[nH]1,141 to 143
5,CC(=O)Nc1cccc(C(C)N)c1 (configuration not stated),59 to 61
6,Nn1cn[nH]c1=O,169 to 171
7,CS(=O)(=O)CCC(NC(=O)c1ccccc1Cl)C(=O)O (configuration not stated),159 to 161
8,O=C(O)c1cc(S(=O)(=O)NCCN2CCCC2)ccc1Cl,279 to 281
9,Nc1ccc2c(c1)NC(=O)CC2,210 to 212
10,COc1cc(-c2cc(C(=O)O)c3ccccc3n2)cc(OC)c1OC,195 to 197
11,CNS(=O)(=O)c1ccc(I)cc1,94 to 96
12,Brc1ccc(CN2CCNCC2)s1,50 to 52
13,COc1ccccc1-c1nn(-c2ccccc2)cc1C(=O)O,195 to 197
14,CCN1CCN(c2ccc(C#N)cn2)CC1,69 to 71
15,CN1CC(=O)Nc2cc(C(=O)O)ccc21,322 to 324
16,CCOc1ccc2oc(C(=O)O)c(C)c2c1,155 to 165
17,CCOc1cc2c(cc1CBr)OC(C)C2 (configuration not stated),69 to 71
18,O=S(=O)(c1ccccc1)N1C2Cc3ccccc3C21 (configuration not stated),120 to 122
19,NNC(=O)CSc1nc2ccccc2o1,169 to 171
20,NCC(O)c1ccc(Cl)cc1 (configuration not stated),97 to 99
21,Cc1cc(C(=O)O)c(Br)s1,181 to 183
22,O=C(O)C1CCCCN1C1=NS(=O)(=O)c2ccccc21 (configuration not stated),185 to 187
23,N#CC(N)c1ccc(OCc2ccccc2)cc1 (configuration not stated),111 to 113

row,Compound,melting point [°C]
1,CC1Cc2ccccc2N1S(N)(=O)=O (configuration not stated),67 to 69
2,CC(C)CC(=O)Nc1ccc(C(=O)O)cc1F,257 to 259
3,O=c1[nH]c(CCl)nc2ccc(Cl)cc12,249 to 251
4,O=C(O)COc1cc(Cl)cc(Cl)c1,115 to 117
5,COc1cc(C(=O)O)ccc1OCc1ccc(Br)s1,179 to 181
6,Cc1ccccc1NC1=NC(C)(C)CS1,159 to 161
7,Nc1ccc2[nH]c(-c3ccccn3)nc2c1,189 to 191
8,CC(O)C(NC(=O)C1CC1)C(=O)O (configuration not stated),138 to 140
9,ClCc1nc(-c2ccsc2)no1,52 to 56
10,CC(Cc1cccc(F)c1)(C(=O)O)C(=O)O,150 to 152
11,CC1Oc2ccc(C(=O)CBr)cc2NC1=O (configuration not stated),147 to 149
12,CC(C)(C)OC(=O)NCc1cccc(O)c1,79 to 81
13,Nc1ncc(-c2ccccc2)[nH]1,139 to 141
14,CNC(=O)c1n[nH]c(=O)c2ccccc12,283 to 285
15,CCOC(=O)C1=NN(c2ccccc2)C(C#N)C1 (configuration not stated),99 to 101
16,CC(C)(C)OC(=O)N1CC(OCCC(=O)O)C1,52 to 54
17,O=C(NC1CCCCC1)c1cccnc1Cl,132 to 134
18,O=C1Nc2ccccc2C1O (configuration not stated),161 to 163
19,Cc1cc(C(=O)O)sc1Br,171 to 173
20,O=C(OCc1ccc(Br)cc1)c1ccccc1O,69 to 71
21,NC(=O)c1ccc(I)cc1,216 to 218
22,CCCCn1c(N)c(NCC)c(=O)[nH]c1=O,285 to 286
23,NS(=O)(=O)c1nccs1,119 to 121

row,Compound,melting point [°C]
1,Cc1noc(COc2ccc(O)cc2)n1,62 to 64
2,CCOC(=O)c1c(N)sc(C)c1CC,45 to 47
3,COc1ccc(S(N)(=O)=O)c(C)c1C,202 to 204
4,O=C(CO)NCc1ccc(F)cc1,102 to 104
5,O=C(O)CCc1nnnn1-c1ccccc1,119 to 121
6,Cc1nc(-c2cccs2)c(CC(=O)O)s1,159 to 161
7,O=C(O)C1CCN(C(=O)c2ccccc2)CC1,144 to 146
8,COc1cccc2c1C(=O)CC2,99 to 102
9,N#Cc1cccc(S(=O)(=O)Nc2cn[nH]c2)c1,162 to 164
10,CCc1n[nH]c(N)c1Br,117 to 119
11,C=Cc1nc(-c2cccc(Cl)c2)no1,51 to 53
12,NNc1ncccc1C(F)(F)F,71 to 73
13,Nc1cc(-c2cccs2)no1,91 to 93
14,CC(Oc1ccc(C23CC4CC(CC(C4)C2)C3)cc1)C(=O)O (configuration not stated),153 to 155
15,N#Cc1cc2c([nH]c1=O)CCN(Cc1ccccc1)C2,218 to 220
16,Oc1ccc(Oc2ccncc2)cc1,181 to 183
17,Nc1nn2cc(-c3ccccc3)nc2c2ccccc12,215 to 217
18,NCCCN1C(=O)NC2(CCCCC2)C1=O,124 to 126
19,NCc1nnc2n1CCCC2,99 to 101
20,O=C(O)c1ccc(C(F)F)cc1,205 to 207
21,O=C(O)c1ccc2c(=O)n(-c3ccccc3)c(S)nc2c1,368 to 370
22,Cc1cc(C(=O)O)c(C)nn1,132 to 134

# Second part, the molecule after the results:
row,melting point [°C],Compound
1,156 to 158,O=Cc1ccc(OCC(=O)O)c([N+](=O)[O-])c1
2,159 to 161,N#Cc1c(F)c(N)c(F)c(F)c1C#N
3,135 to 137,Nc1ccc(Cl)c(-n2nnnc2C2CC2)c1
4,158 to 160,Cc1nnc(-c2cccc([N+](=O)[O-])c2)o1
5,252 to 254,Sc1nnc2sc3ccccc3n12
6,101 to 103,Cc1cc(Sc2nccn2C)ccc1N
7,217 to 219,Nc1ccc(C(=O)NC2CCOCC2)cc1
8,136 to 138,Nc1nc(-c2cccs2)cs1
9,206 to 208,O=C1COc2cc(F)ccc2N1
10,123 to 125,O=C(O)c1ccnc(OC2CCCCC2)c1
11,72 to 74,CC(Oc1ccc(F)cc1Cl)C(=O)O (configuration not stated)
12,177 to 179,Cc1cc(O)nc(C(C)(C)C)n1
13,138 to 140,O=C(O)C1=NN(C2CCS(=O)(=O)C2)C(=O)CC1 (configuration not stated)
14,163 to 165,CC(C)(C)Sc1ccc(C(N)=S)cc1
15,149 to 151,CCc1cc(N)nc(C)n1
16,89 to 91,COc1cc2nc(C)sc2cc1N
17,166 to 168,N#Cc1cccc(C(=O)NN)c1
18,19 to 20,Cc1ccc(C)c(-n2c(=O)c(N)c(C)n2C)c1
19,64 to 66,CC(C)Cc1ccc(CCC(=O)O)cc1

row,melting point [°C],Compound
1,94 to 96,Cc1cc2ccccc2nc1Br
2,199 to 201,Nc1cc(C(=O)O)cnc1Cl
3,222 to 224,O=C(O)c1csc(-c2ccc3c(c2)OCO3)n1
4,126 to 128,CC1CCCCC1NC(=O)NC(=O)CCl (configuration not stated)
5,73 to 75,COc1ccc(C)cc1C(=O)CBr
6,86 to 88,O=C(O)c1cccc(OCC2CCCO2)c1 (configuration not stated)
7,256 to 258,NC(=O)c1cnn(-c2ncccn2)c1N
8,69 to 71,COc1ccc([N+](=O)[O-])cc1C#N
9,125 to 127,CCn1cnnc1Nc1ccccc1
10,71 to 73,CC(C)c1ccc(CCC(=O)O)cc1
11,179 to 181,COc1cc(C(=O)O)cc(OC)c1OC(F)F
12,160 to 162,Nc1ccc2nc(CN3CCOCC3)[nH]c2c1
13,233 to 235,Cn1c(C(=O)O)c(Cl)c2ccccc21
14,99 to 101,CC(C)(C(N)=S)c1ccccc1
15,97 to 99,CN(C)S(=O)(=O)c1cccc(S(=O)(=O)Cl)c1
16,57 to 59,N#CCc1nc(C23CC4CC(CC(C4)C2)C3)cs1
17,109 to 111,Cc1cccc(OCC(=O)NN)c1
18,144 to 146,N#Cc1cccc(-c2ncn[nH]2)c1
19,93 to 95,Cc1nc(C2(NC(=O)CCl)CCCCC2)no1

row,melting point [°C],Compound
1,78 to 80,COC(=O)c1cc(S(=O)(=O)Cl)cn1C
2,147 to 149,Cn1nnnc1-c1cccc(N)c1
3,164 to 166,NNc1ccc(S(=O)(=O)N2CCCC2)cn1
4,67 to 69,CN1CCc2ncnc(Cl)c2C1
5,84 to 86,CCCCCCCCCCCCSc1nc2sc3c(c2c(=O)n1-c1ccccc1)CCCC3
6,88 to 90,Brc1ccc(NCc2cccnc2)cc1
7,159 to 161,O=C1CSC(=S)N1c1cccnc1
8,111 to 113,Nc1cc(N)c(F)cc1F
9,113 to 115,CC1(C)NCCNC1=O
10,299 to 301,Cc1cc(Br)cc2c(O)c(C(=O)O)cnc12
11,69 to 71,CCOC(=O)c1cc(F)ccc1S(=O)(=O)Cl
12,120 to 122,CCOC(=O)Cc1csc(NC(=O)OCC(F)(F)F)n1
13,200 to 202,CCOC(=O)c1sc(-c2ccc(Cl)cc2)cc1N
14,110 to 114,Nc1ncc(Cc2cc(Cl)ccc2Cl)s1
15,108 to 110,Cc1ccc(N)cc1NC(=O)CN1CCCCC1
16,197 to 199,C=CC(=O)Nc1ccc(Br)cc1
17,151 to 153,Cn1cc(C=O)c(-c2cc3ccccc3o2)n1
18,149 to 151,CCC(CC)n1nc(C)cc1C(=O)O
